Results as given in BigSolDB 2.1.

O=[N+]([O-])c1cc([N+](=O)[O-])c(Cl)cc1Cl
Settings	solubility (mole fraction)
in 1,2-dichloroethane, 298.15 K	0.138
in 1,2-dichloroethane, 303.15 K	0.156
in 1,2-dichloroethane, 308.15 K	0.176
in 1,2-dichloroethane, 313.15 K	0.199
in 1,2-dichloroethane, 318.15 K	0.224
in 1,2-dichloroethane, 323.15 K	0.251
in 1,2-dichloroethane, 328.15 K	0.282
in 1,2-dichloroethane, 333.15 K	0.316
in DMF, 298.15 K	0.286
in DMF, 303.15 K	0.308
in DMF, 308.15 K	0.329
in DMF, 313.15 K	0.353
in DMF, 318.15 K	0.378
in DMF, 323.15 K	0.406
in DMF, 328.15 K	0.436
in DMF, 333.15 K	0.469
in DMSO, 298.15 K	0.192
in DMSO, 303.15 K	0.215
in DMSO, 308.15 K	0.241
in DMSO, 313.15 K	0.269
in DMSO, 318.15 K	0.3
in DMSO, 323.15 K	0.332
in DMSO, 328.15 K	0.368
in DMSO, 333.15 K	0.408
in NMP, 298.15 K	0.362
in NMP, 303.15 K	0.381
in NMP, 308.15 K	0.4
in NMP, 313.15 K	0.421
in NMP, 318.15 K	0.444
in NMP, 323.15 K	0.468
in NMP, 328.15 K	0.495
in NMP, 333.15 K	0.524
in acetone, 288.15 K	0.169
in acetone, 293.15 K	0.187
in acetone, 298.15 K	0.206
in acetone, 303.15 K	0.227
in acetone, 308.15 K	0.249
in acetone, 313.15 K	0.273
in acetone, 318.15 K	0.298
in acetone, 323.15 K	0.326
in acetonitrile, 298.15 K	0.129
in acetonitrile, 303.15 K	0.154
in acetonitrile, 308.15 K	0.183
in acetonitrile, 313.15 K	0.217
in acetonitrile, 318.15 K	0.254
in acetonitrile, 323.15 K	0.296
in acetonitrile, 328.15 K	0.344
in acetonitrile, 333.15 K	0.397
in chloroform, 293.15 K	0.108
in chloroform, 298.15 K	0.128
in chloroform, 303.15 K	0.149
in chloroform, 308.15 K	0.175
in chloroform, 313.15 K	0.205
in chloroform, 318.15 K	0.238
in chloroform, 323.15 K	0.274
in chloroform, 328.15 K	0.319
in dichloromethane, 278.15 K	0.0915
in dichloromethane, 283.15 K	0.106
in dichloromethane, 288.15 K	0.121
in dichloromethane, 293.15 K	0.138
in dichloromethane, 298.15 K	0.158
in dichloromethane, 303.15 K	0.181
in dichloromethane, 308.15 K	0.205
in ethanol, 298.15 K	0.00702
in ethanol, 303.15 K	0.00858
in ethanol, 308.15 K	0.0104
in ethanol, 313.15 K	0.0126
in ethanol, 318.15 K	0.0156
in ethanol, 323.15 K	0.0189
in ethanol, 328.15 K	0.0232
in ethanol, 333.15 K	0.0282
in ethyl acetate, 298.15 K	0.17
in ethyl acetate, 303.15 K	0.189
in ethyl acetate, 308.15 K	0.207
in ethyl acetate, 313.15 K	0.228
in ethyl acetate, 318.15 K	0.251
in ethyl acetate, 323.15 K	0.277
in ethyl acetate, 328.15 K	0.306
in ethyl acetate, 333.15 K	0.336
in isopropanol, 298.15 K	0.00322
in isopropanol, 303.15 K	0.00429
in isopropanol, 308.15 K	0.00581
in isopropanol, 313.15 K	0.00763
in isopropanol, 318.15 K	0.01
in isopropanol, 323.15 K	0.0131
in isopropanol, 328.15 K	0.0173
in isopropanol, 333.15 K	0.0223
in methanol, 298.15 K	0.00929
in methanol, 303.15 K	0.0112
in methanol, 308.15 K	0.0135
in methanol, 313.15 K	0.0163
in methanol, 318.15 K	0.0197
in methanol, 323.15 K	0.0236
in methanol, 328.15 K	0.0284
in methanol, 333.15 K	0.0341
in n-butanol, 298.15 K	0.00624
in n-butanol, 303.15 K	0.00794
in n-butanol, 308.15 K	0.0101
in n-butanol, 313.15 K	0.0128
in n-butanol, 318.15 K	0.016
in n-butanol, 323.15 K	0.0201
in n-butanol, 328.15 K	0.025
in n-butanol, 333.15 K	0.0308
in tetrachloromethane, 298.15 K	0.0153
in tetrachloromethane, 303.15 K	0.0207
in tetrachloromethane, 308.15 K	0.0276
in tetrachloromethane, 313.15 K	0.0368
in tetrachloromethane, 318.15 K	0.049
in tetrachloromethane, 323.15 K	0.0638
in tetrachloromethane, 328.15 K	0.0835
in tetrachloromethane, 333.15 K	0.108
in toluene, 298.15 K	0.201
in toluene, 303.15 K	0.225
in toluene, 308.15 K	0.25
in toluene, 313.15 K	0.277
in toluene, 318.15 K	0.307
in toluene, 323.15 K	0.34
in toluene, 328.15 K	0.374
in toluene, 333.15 K	0.413
